Experimental findings from PubChem BioAssay (NCI) are described below.

Several values for one entry are separate records, joined by “and”; a condition that tells them apart may be missing. Equal entries are not always repeated.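 Tested at 5 concentrations; 48 h exposure; 96-well plates; endpoints linearly interpolated, else capped at highest concentration. At the GI50, growth is halved. The concentration for full growth arrest is given as TGI.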

One assay has as its system CCRF-CEM leukemia. Kind of assay: NCI-60 cell line screen, 48 h.
As for `C#Cc1cnc(=O)n(C2CC(O)C(CO)O2)c1` (stereo unspecified), the GI50 is 13.5 µM and the TGI was > 32.8 µM.

`COc1c(C2CC(=O)Nc3c2cnn3Cc2ccco2)cc2c(c1OC)OCO2` (stereo unspecified): the GI50 is 0.597 µM and the TGI was > 100 µM.

Regarding `O=C(c1cccs1)c1c(C(F)(F)F)n([O-])c2ccccc2[n+]1=O`, the GI50 was 6.69 µM and the TGI stood at 13.1 µM.

`CC(CO)(CO)N=Cc1cc(I)cc(I)c1O` showed a TGI of 44.5 µM.

Turning to `CCN1CCN(c2nc(NCCCNc3ccnc4cc(Cl)ccc34)c3ccccc3n2)CC1`, the GI50 was 2.88 µM and the TGI was found to be 10.3 µM.

With `CC1(C)N=C(N)N=C(N)N1c1ccc(CCCCc2ccc(S(=O)(=O)F)cc2)cc1`, the GI50 is 0.561 µM and the TGI was determined as 19.7 µM.

Regarding `COc1cc(C(=O)NC2c3ccccc3-c3ccccc32)c(N)cc1OCc1ccccc1`, the GI50 is > 100 µM and the TGI is > 100 µM.

Regarding `Oc1ccccc1/C=N/Nc1ccc2ccccc2n1`, the GI50 was 0.862 µM and the TGI was > 100 µM.

As to `COc1ccc(C(=S)N2CCN(c3cccc(Cl)c3)CC2)cc1`, the GI50 was > 100 µM and the TGI is > 100 µM.

Regarding `CSc1nc(SC)c2c(CN=[N+]=[N-])c(Br)n(Cc3ccccc3)c2n1`, the TGI is > 100 µM.

For the compound `Clc1ccccc1C(c1ccccc1)(c1ccccc1)n1ccnc1`, the TGI stood at 31.4 µM.

As to `CCCCCCCCCCCCCC(=S)NCCCC[C@H](NC(=O)OCc1ccccc1)C(=O)Nc1ccccc1`, the GI50 is 4.04 µM and the TGI is > 100 µM.

In the case of `C=C1CCC2C(/C=C(\C)CCC1O)OC(=O)C2C` (stereo unspecified), the GI50 was 31.3 µM and the TGI was > 100 µM.

As to `CC(C)(C)c1cc(O)c(O)c(C(C)(C)C)c1`, the GI50 was 2.33 µM and the TGI was 7.49 µM.

`O=c1cc(-c2cccc(F)c2)[nH]c2cc3c(cc12)OCO3`: the GI50 was 0.346 µM; the TGI was 75 µM and > 10.8 µM.

On to `CN1CCN(CC#Cc2cccc(C(=O)c3cnn(-c4ccc(F)cc4)c3N)c2)CC1`, for which the GI50 was > 25 µM and the TGI was > 25 µM.

Another assay relates to HOP-92 NSCLC. Kind of assay: NCI-60 cell line screen, 48 h.
Turning to `C#Cc1cnc(=O)n(C2CC(O)C(CO)O2)c1` (stereo unspecified), the TGI is > 43.2 µM.

Consider `COc1c(C2CC(=O)Nc3c2cnn3Cc2ccco2)cc2c(c1OC)OCO2` (stereo unspecified), for which the GI50 was 0.424 µM and the TGI was 98 µM.

Turning to `O=C(c1cccs1)c1c(C(F)(F)F)n([O-])c2ccccc2[n+]1=O`, the GI50 was 0.99 µM and the TGI turned out to be 2.28 µM.

The compound `CC(CO)(CO)N=Cc1cc(I)cc(I)c1O` displayed a TGI of 32.9 µM.

On to `CCN1CCN(c2nc(NCCCNc3ccnc4cc(Cl)ccc34)c3ccccc3n2)CC1`, for which the GI50 is 1.78 µM and the TGI is 4.64 µM.

As for `CC1(C)N=C(N)N=C(N)N1c1ccc(CCCCc2ccc(S(=O)(=O)F)cc2)cc1`, the GI50 was 4.48 µM and the TGI worked out at 27.8 µM.

Turning to `COc1cc(C(=O)NC2c3ccccc3-c3ccccc32)c(N)cc1OCc1ccccc1`, the GI50 was 14.2 µM and the TGI turned out to be 33.6 µM.

Take `Oc1ccccc1/C=N/Nc1ccc2ccccc2n1`: the GI50 was 4.47 µM and the TGI turned out to be 42.5 µM.

With `COc1ccc(C(=S)N2CCN(c3cccc(Cl)c3)CC2)cc1`, the GI50 was 17.2 µM and the TGI is > 100 µM.

Compound `CSc1nc(SC)c2c(CN=[N+]=[N-])c(Br)n(Cc3ccccc3)c2n1` returned a TGI of 83.8 µM.

Take `Clc1ccccc1C(c1ccccc1)(c1ccccc1)n1ccnc1`: the GI50 is 1.57 µM; the TGI is 4.3 µM and 37.9 µM.

As for `CCCCCCCCCCCCCC(=S)NCCCC[C@H](NC(=O)OCc1ccccc1)C(=O)Nc1ccccc1`, the GI50 was 2.3 µM and the TGI turned out to be 8.25 µM.

`C=C1CCC2C(/C=C(\C)CCC1O)OC(=O)C2C` (stereo unspecified): the GI50 is > 100 µM and the TGI is > 100 µM.

In the case of `CC(C)(C)c1cc(O)c(O)c(C(C)(C)C)c1`, the GI50 was 1.36 µM and the TGI is 4.6 µM.

Turning to `O=c1cc(-c2cccc(F)c2)[nH]c2cc3c(cc12)OCO3`, the TGI is 5.23 µM.

`CN1CCN(CC#Cc2cccc(C(=O)c3cnn(-c4ccc(F)cc4)c3N)c2)CC1`: the GI50 is 15.2 µM and the TGI was > 25 µM.

Another assay concerns OVCAR-3 ovarian. Kind of assay: NCI-60 cell line screen, 48 h.
Regarding `C#Cc1cnc(=O)n(C2CC(O)C(CO)O2)c1` (stereo unspecified), the GI50 was 97 µM and the TGI is > 100 µM.

As for `COc1c(C2CC(=O)Nc3c2cnn3Cc2ccco2)cc2c(c1OC)OCO2` (stereo unspecified), the GI50 was 0.325 µM and the TGI was 1.4 µM.

For `O=C(c1cccs1)c1c(C(F)(F)F)n([O-])c2ccccc2[n+]1=O`, the GI50 is 0.744 µM and the TGI was 1.67 µM.

The compound `CC(CO)(CO)N=Cc1cc(I)cc(I)c1O` came in with a TGI of 29.2 µM.

In the case of `CCN1CCN(c2nc(NCCCNc3ccnc4cc(Cl)ccc34)c3ccccc3n2)CC1`, the GI50 is 2.9 µM and the TGI worked out at 10.3 µM.

Turning to `CC1(C)N=C(N)N=C(N)N1c1ccc(CCCCc2ccc(S(=O)(=O)F)cc2)cc1`, the GI50 is 3.88 µM and the TGI was 16.4 µM.

Turning to `COc1cc(C(=O)NC2c3ccccc3-c3ccccc32)c(N)cc1OCc1ccccc1`, the GI50 is 24.2 µM and the TGI was > 87.3 µM.

On to `Oc1ccccc1/C=N/Nc1ccc2ccccc2n1`, for which the GI50 is 2.82 µM and the TGI turned out to be 13.8 µM.

For `COc1ccc(C(=S)N2CCN(c3cccc(Cl)c3)CC2)cc1`, the GI50 was > 100 µM and the TGI was > 100 µM.

For the compound `CSc1nc(SC)c2c(CN=[N+]=[N-])c(Br)n(Cc3ccccc3)c2n1`, the TGI was > 100 µM.

Turning to `Clc1ccccc1C(c1ccccc1)(c1ccccc1)n1ccnc1`, the GI50 is 1.78 µM; the TGI is 4.41 µM and 17.6 µM.

With `CCCCCCCCCCCCCC(=S)NCCCC[C@H](NC(=O)OCc1ccccc1)C(=O)Nc1ccccc1`, the GI50 is 3.52 µM and the TGI is > 100 µM.

Take `C=C1CCC2C(/C=C(\C)CCC1O)OC(=O)C2C` (stereo unspecified): the GI50 is > 100 µM and the TGI was > 100 µM.

Regarding `CC(C)(C)c1cc(O)c(O)c(C(C)(C)C)c1`, the GI50 was 1.93 µM and the TGI is 3.38 µM.

As to `O=c1cc(-c2cccc(F)c2)[nH]c2cc3c(cc12)OCO3`, the GI50 is 0.291 µM.

Take `CN1CCN(CC#Cc2cccc(C(=O)c3cnn(-c4ccc(F)cc4)c3N)c2)CC1`: the GI50 is > 25 µM and the TGI is > 25 µM.

The subject of the next assay is NCI-H522 lung. Put plainly: NCI-60 cell line screen, 48 h.
In the case of `C#Cc1cnc(=O)n(C2CC(O)C(CO)O2)c1` (stereo unspecified), the GI50 was > 100 µM and the TGI is > 100 µM.

Consider `COc1c(C2CC(=O)Nc3c2cnn3Cc2ccco2)cc2c(c1OC)OCO2` (stereo unspecified), for which the GI50 is 0.349 µM and the TGI was determined as 3.24 µM.

In the case of `O=C(c1cccs1)c1c(C(F)(F)F)n([O-])c2ccccc2[n+]1=O`, the GI50 was 0.125 µM and the TGI was 1.54 µM.

`CC(CO)(CO)N=Cc1cc(I)cc(I)c1O`: the TGI turned out to be 49.4 µM.

Regarding `CCN1CCN(c2nc(NCCCNc3ccnc4cc(Cl)ccc34)c3ccccc3n2)CC1`, the GI50 was 2.92 µM and the TGI was 6.14 µM.

As to `CC1(C)N=C(N)N=C(N)N1c1ccc(CCCCc2ccc(S(=O)(=O)F)cc2)cc1`, the GI50 was 2.43 µM and the TGI came to 16.2 µM.

Consider `COc1cc(C(=O)NC2c3ccccc3-c3ccccc32)c(N)cc1OCc1ccccc1`, for which the GI50 is 34.7 µM and the TGI is > 100 µM.

`Oc1ccccc1/C=N/Nc1ccc2ccccc2n1`: the GI50 is 2.36 µM and the TGI was found to be 9.41 µM.

Take `COc1ccc(C(=S)N2CCN(c3cccc(Cl)c3)CC2)cc1`: the GI50 was 15.3 µM and the TGI is > 100 µM.

For `CSc1nc(SC)c2c(CN=[N+]=[N-])c(Br)n(Cc3ccccc3)c2n1`, the TGI is > 100 µM.

On to `Clc1ccccc1C(c1ccccc1)(c1ccccc1)n1ccnc1`, for which the GI50 is 2.66 µM; the TGI was 8.89 µM and 18.9 µM.

`CCCCCCCCCCCCCC(=S)NCCCC[C@H](NC(=O)OCc1ccccc1)C(=O)Nc1ccccc1`: the GI50 was 2.84 µM and the TGI turned out to be 31.2 µM.

With `C=C1CCC2C(/C=C(\C)CCC1O)OC(=O)C2C` (stereo unspecified), the GI50 was > 100 µM and the TGI is > 100 µM.

In the case of `CC(C)(C)c1cc(O)c(O)c(C(C)(C)C)c1`, the GI50 was 1.77 µM and the TGI stood at 3.29 µM.

Consider `O=c1cc(-c2cccc(F)c2)[nH]c2cc3c(cc12)OCO3`, for which the GI50 is 0.172 µM; the TGI is 0.406 µM and 0.112 µM.

`CN1CCN(CC#Cc2cccc(C(=O)c3cnn(-c4ccc(F)cc4)c3N)c2)CC1`: the GI50 is > 25 µM and the TGI is > 25 µM.

For another assay, the system named is UO-31 renal. Kind of assay: NCI-60 cell line screen, 48 h.
In the case of `C#Cc1cnc(=O)n(C2CC(O)C(CO)O2)c1` (stereo unspecified), the GI50 is > 100 µM and the TGI is > 100 µM.

Consider `COc1c(C2CC(=O)Nc3c2cnn3Cc2ccco2)cc2c(c1OC)OCO2` (stereo unspecified), for which the GI50 was 2.65 µM and the TGI was > 100 µM.

Take `O=C(c1cccs1)c1c(C(F)(F)F)n([O-])c2ccccc2[n+]1=O`: the GI50 was 0.0775 µM and the TGI amounted to 6.08 µM.

Regarding `CC(CO)(CO)N=Cc1cc(I)cc(I)c1O`, the TGI worked out at 34.6 µM.

On to `CCN1CCN(c2nc(NCCCNc3ccnc4cc(Cl)ccc34)c3ccccc3n2)CC1`, for which the GI50 is 1.49 µM and the TGI was determined as 2.97 µM.

Regarding `CC1(C)N=C(N)N=C(N)N1c1ccc(CCCCc2ccc(S(=O)(=O)F)cc2)cc1`, the GI50 is 35.1 µM and the TGI was > 100 µM.

As for `COc1cc(C(=O)NC2c3ccccc3-c3ccccc32)c(N)cc1OCc1ccccc1`, the GI50 is 30.2 µM and the TGI was > 100 µM.

Consider `Oc1ccccc1/C=N/Nc1ccc2ccccc2n1`, for which the GI50 is 1.17 µM and the TGI turned out to be 35.6 µM.

Consider `COc1ccc(C(=S)N2CCN(c3cccc(Cl)c3)CC2)cc1`, for which the GI50 is 43.3 µM and the TGI was > 100 µM.

With `CSc1nc(SC)c2c(CN=[N+]=[N-])c(Br)n(Cc3ccccc3)c2n1`, the TGI is > 100 µM.

`Clc1ccccc1C(c1ccccc1)(c1ccccc1)n1ccnc1`: the GI50 was 1.45 µM; the TGI is 9 µM and 19.8 µM.

With `CCCCCCCCCCCCCC(=S)NCCCC[C@H](NC(=O)OCc1ccccc1)C(=O)Nc1ccccc1`, the GI50 was 2.39 µM and the TGI was > 100 µM.

For the compound `C=C1CCC2C(/C=C(\C)CCC1O)OC(=O)C2C` (stereo unspecified), the GI50 is > 100 µM and the TGI is > 100 µM.

On to `CC(C)(C)c1cc(O)c(O)c(C(C)(C)C)c1`, for which the GI50 was 2.15 µM and the TGI is 4.98 µM.

Consider `O=c1cc(-c2cccc(F)c2)[nH]c2cc3c(cc12)OCO3`, for which the GI50 was 0.47 µM; the TGI was 75 µM and > 63.4 µM.

For `CN1CCN(CC#Cc2cccc(C(=O)c3cnn(-c4ccc(F)cc4)c3N)c2)CC1`, the GI50 is > 25 µM and the TGI is > 25 µM.
